# In patent US20100105655A1, “NOVEL COMPOUNDS 515” (ASTRAZENECA AB, priority 2008, published 2010):
# Molecular target: T1, IGFR kinase (Homo sapiens, UniProt P08069)
# T1 construct: purchased Millipore
# Experiment: Enzyme assay (c), IGFR kinase, Caliper LabChip
# Assay type: biochemical
# Settings: 30 nM IGFR kinase, 6 uM ATP, 3 uM peptide mix; read-out: IGFR IC50
# T1 sequence (P08069 31-1367): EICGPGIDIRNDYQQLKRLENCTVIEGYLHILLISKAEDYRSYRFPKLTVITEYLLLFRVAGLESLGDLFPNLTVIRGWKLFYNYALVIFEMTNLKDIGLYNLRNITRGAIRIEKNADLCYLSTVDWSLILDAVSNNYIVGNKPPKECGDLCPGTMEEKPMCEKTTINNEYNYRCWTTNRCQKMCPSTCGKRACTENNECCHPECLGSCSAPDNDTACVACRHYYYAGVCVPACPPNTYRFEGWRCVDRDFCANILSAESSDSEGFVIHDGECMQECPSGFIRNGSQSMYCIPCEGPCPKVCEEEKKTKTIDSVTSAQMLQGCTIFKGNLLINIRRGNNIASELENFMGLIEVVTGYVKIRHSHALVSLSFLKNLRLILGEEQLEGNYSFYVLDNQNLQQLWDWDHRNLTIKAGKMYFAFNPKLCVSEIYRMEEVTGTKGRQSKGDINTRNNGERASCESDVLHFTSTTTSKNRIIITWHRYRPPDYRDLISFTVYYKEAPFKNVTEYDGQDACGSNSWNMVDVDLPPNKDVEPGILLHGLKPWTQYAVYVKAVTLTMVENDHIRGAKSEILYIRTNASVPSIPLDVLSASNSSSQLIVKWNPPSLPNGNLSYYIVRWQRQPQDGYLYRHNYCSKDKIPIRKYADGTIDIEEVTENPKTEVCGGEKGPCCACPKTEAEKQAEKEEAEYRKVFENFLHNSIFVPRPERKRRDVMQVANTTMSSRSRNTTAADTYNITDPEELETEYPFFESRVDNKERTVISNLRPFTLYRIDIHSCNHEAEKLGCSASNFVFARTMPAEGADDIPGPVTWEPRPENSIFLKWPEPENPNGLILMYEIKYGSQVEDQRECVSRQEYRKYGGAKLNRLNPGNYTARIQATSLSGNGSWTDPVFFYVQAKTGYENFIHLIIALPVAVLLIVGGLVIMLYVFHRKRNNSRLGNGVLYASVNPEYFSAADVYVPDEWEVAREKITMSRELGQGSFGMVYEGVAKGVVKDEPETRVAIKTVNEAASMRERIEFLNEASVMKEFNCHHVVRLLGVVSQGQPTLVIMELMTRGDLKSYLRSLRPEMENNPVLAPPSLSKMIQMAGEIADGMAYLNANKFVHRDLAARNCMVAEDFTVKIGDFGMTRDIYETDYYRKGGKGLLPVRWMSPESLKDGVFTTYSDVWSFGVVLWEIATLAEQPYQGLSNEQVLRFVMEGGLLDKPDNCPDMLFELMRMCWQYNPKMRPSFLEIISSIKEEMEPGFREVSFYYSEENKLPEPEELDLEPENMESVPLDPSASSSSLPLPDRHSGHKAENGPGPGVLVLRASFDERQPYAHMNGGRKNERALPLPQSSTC
row,Structure (SMILES),IC50
1,"COc1cc(N2CCN(C(=O)CN3CCOCC3)CC2)ccc1Nc1ncc(Cl)c(-c2cnc3ccccn23)n1 [Example 275, 1-[4-[4-[(5-chloro-4-imidazo[1,2-a]pyridin-3-yl-pyrimidin-2-yl)amino]-3-methoxy-phenyl]piperazin-1-yl]-2-morpholino-ethanone]",9 nM
2,"COc1cc(C2CCCN(C(C)=O)C2)ccc1Nc1ncc(Cl)c(-c2cnc3ccccn23)n1 (centres unmarked) [Example 3.29, 1-[3-[4-[(5-chloro-4-imidazo[1,2-a]pyridin-3-yl-pyrimidin-2-yl)amino]-3-methoxy-phenyl]-1-piperidyl]ethanone]",6 nM
3,"COc1cc(CN2CC(O)C2)ccc1Nc1ncc(Cl)c(-c2cnc3ccccn23)n1 [Example 21.16, 1-[[4-[(5-chloro-4-imidazo[1,2-a]pyridin-3-yl-pyrimidin-2-yl)amino]-3-methoxy-phenyl]methyl]azetidin-3-ol]",22 nM
4,"COc1cc(N2CCN(C(=O)[C@@H](N)C(C)C)CC2)ccc1Nc1ncc(Cl)c(-c2cnc3ccccn23)n1 [Example 24.6, (2S)-2-amino-1-[4-[4-[(5-chloro-4-imidazo[1,2-a]pyridin-3-yl-pyrimidin-2-yl)amino]-3-methoxy-phenyl]piperazin-1-yl]-3-methyl-butan-1-one]",6 nM
5,"COc1cc(N2CCN(CCO)CC2)ccc1Nc1ncc(Cl)c(-c2cnc3ccc(F)cn23)n1 [Example 263, 2-[4-[4-[[5-chloro-4-(6-fluoroimidazo[1,2-a]pyridin-3-yl)pyrimidin-2-yl]amino]-3-methoxy-phenyl]piperazin-1-yl]ethanol]",7 nM
6,"COc1cc(N2CCNCC2)ccc1Nc1ncc(Cl)c(-c2cnn3ccccc23)n1 [Example 129, 5-chloro-N-(2-methoxy-4-piperazin-1-yl-phenyl)-4-pyrazolo[1,5-a]pyridin-3-yl-pyrimidin-2-amine]",3 nM
7,"COc1cc(N2CC3CN(CCO)CC(C2)O3)ccc1Nc1ncc(Cl)c(-c2cnc3c(F)cccn23)n1 [Example 184, 2-[7-[4-[[5-chloro-4-(8-fluoroimidazo[1,2-a]pyridin-3-yl)pyrimidin-2-yl]amino]-3-methoxy-phenyl]-9-oxa-3,7-diazabicyclo[3.3.1]nonan-3-yl]ethanol]",7 nM
8,"COc1cc(C2CCN(C(=O)CO)CC2)ccc1Nc1ncc(C#N)c(-c2cnn3ccccc23)n1 [Example 240, 2-[4-[1-(2-hydroxyacetyl)-4-piperidyl]-2-methoxy-anilino]-4-pyrazolo[1,5-a]pyridin-3-yl-pyrimidine-5-carbonitrile]",3 nM
9,"COc1cc(N2CCN(C(C)=O)CC2)c(C)cc1Nc1ncc(Cl)c(-c2cnc3ccccn23)n1 [Example 278, 1-[4-[4-[(5-chloro-4-imidazo[1,2-a]pyridin-3-yl-pyrimidin-2-yl)amino]-5-methoxy-2-methyl-phenyl]piperazin-1-yl]ethanone]",8 nM
10,"COc1cc(N2CCN(CCO)CC2)ccc1Nc1ncc(C(F)(F)F)c(-c2cnc3ccccn23)n1 [Example 109, 2-[4-[4-[[4-imidazo[1,2-a]pyridin-3-yl-5-(trifluoromethyl)pyrimidin-2-yl]amino]-3-methoxy-phenyl]piperazin-1-yl]ethanol]",16 nM
11,"COCC(=O)N1CCN(c2ccc(Nc3ncc(Cl)c(-c4cnc5ccccn45)n3)c(OC)c2)CC1 [Example 39, 1-[4-[4-[(5-chloro-4-imidazo[1,2-a]pyridin-3-yl-pyrimidin-2-yl)amino]-3-methoxy-phenyl]piperazin-1-yl]-2-methoxy-ethanone]",12 nM
12,"COc1cc(CN2CCC(O)CC2)ccc1Nc1ncc(Cl)c(-c2cnc3ccccn23)n1 [Example 21.5, 1-[[4-[(5-chloro-4-imidazo[1,2-a]pyridin-3-yl-pyrimidin-2-yl)amino]-3-methoxy-phenyl]methyl]piperidin-4-ol]",28 nM
13,"CCOc1cc(N2CCN(C)CC2)ccc1Nc1ncc(Br)c(-c2cnc3ccccn23)n1 [Example 122, 5-bromo-N-[2-ethoxy-4-(4-methylpiperazin-1-yl)phenyl]-4-imidazo[1,2-a]pyridin-3-yl-pyrimidin-2-amine]",8 nM
14,"COc1cc(N2CCN(C(=O)[C@@H](C)O)CC2)ccc1Nc1ncc(Cl)c(-c2cnc3c(F)cc(F)cn23)n1 [Example 256, (2R)-1-[4-[4-[[5-chloro-4-(6,8-difluoroimidazo[1,2-a]pyridin-3-yl)pyrimidin-2-yl]amino]-3-methoxy-phenyl]piperazin-1-yl]-2-hydroxy-propan-1-one]",5 nM
15,"COc1cc(N2CC3CN(C)CC(C2)O3)ccc1Nc1ncc(Cl)c(-c2cnc3c(F)cccn23)n1 [Example 203, 5-chloro-4-(8-fluoroimidazo[1,2-a]pyridin-3-yl)-N-[2-methoxy-4-(7-methyl-9-oxa-3,7-diazabicyclo[3.3.1]nonan-3-yl)phenyl]pyrimidin-2-amine]",9 nM
16,"COc1cc(N2CCN(C(=O)[C@@H](N)CC(N)=O)CC2)ccc1Nc1ncc(Cl)c(-c2cnc3ccccn23)n1 [Example 24.8, (3S)-3-amino-4-[4-[4-[(5-chloro-4-imidazo[1,2-a]pyridin-3-yl-pyrimidin-2-yl)amino]-3-methoxy-phenyl]piperazin-1-yl]-4-oxo-butanamide]",7 nM

row,Structure (SMILES),IC50
1,"COc1cc(O[C@@H]2CCN(C(=O)[C@H](C)O)C2)ccc1Nc1ncc(Cl)c(-c2cnc3ccccn23)n1 [Example 12A, (2S)-1-[(3R)-3-[4-[(5-chloro-4-imidazo[1,2-a]pyridin-3-yl-pyrimidin-2-yl)amino]-3-methoxy-phenoxy]pyrrolidin-1-yl]-2-hydroxy-propan-1-one]",13 nM
2,"COc1cc(N2CCOCC2)ccc1Nc1ncc(C)c(-c2cnc3ccccn23)n1 [Example 100, 4-imidazo[1,2-a]pyridin-3-yl-N-(2-methoxy-4-morpholino-phenyl)-5-methyl-pyrimidin-2-amine]",57 nM
3,"COc1cc(N2CCNCC2)ccc1Nc1ncc(C)c(-c2cnc3ccccn23)n1 [Example 98, 4-imidazo[1,2-a]pyridin-3-yl-N-(2-methoxy-4-piperazin-1-yl-phenyl)-5-methyl-pyrimidin-2-amine]",22 nM
4,"COc1ccc(N2CCN(C(=O)CN(C)C)CC2)cc1Nc1ncc(Cl)c(-c2cnn3ccccc23)n1 [Example 152, 1-[4-[3-[(5-chloro-4-pyrazolo[1,5-a]pyridin-3-yl-pyrimidin-2-yl)amino]-4-methoxy-phenyl]piperazin-1-yl]-2-(dimethylamino)ethanone]",25 nM
5,"COc1cc(N2CCN(C(=O)[C@H](N)CO)CC2)ccc1Nc1ncc(Cl)c(-c2cnc3ccccn23)n1 [Example 24.12, (2R)-2-amino-1-[4-[4-[(5-chloro-4-imidazo[1,2-a]pyridin-3-yl-pyrimidin-2-yl)amino]-3-methoxy-phenyl]piperazin-1-yl]-3-hydroxy-propan-1-one]",6 nM
6,"COc1cc(C=O)ccc1Nc1ncc(Cl)c(-c2cnc3ccccn23)n1 [Example 20A, 4-(5-chloro-4-(imidazo[1,2-a]pyridin-3-yl)pyrimidin-2-ylamino)-3-methoxybenzaldehyde]",68 nM
7,"COc1cc(N2CCN(CCO)CC2)ccc1Nc1ncc(C)c(-c2cnc3ccc(F)cn23)n1 [Example 264, 2-[4-[4-[[4-(6-fluoroimidazo[1,2-a]pyridin-3-yl)-5-methyl-pyrimidin-2-yl]amino]-3-methoxy-phenyl]piperazin-1-yl]ethanol]",12 nM
8,"COc1cc(O[C@@H]2CCN(C(C)=O)C2)ccc1Nc1ncc(Cl)c(-c2cnc3ccccn23)n1 [Example 10, 1-[(3R)-3-[4-[(5-chloro-4-imidazo[1,2-a]pyridin-3-yl-pyrimidin-2-yl)amino]-3-methoxy-phenoxy]pyrrolidin-1-yl]ethanone]",20 nM
9,"COc1cc(C2CCN(C(C)=O)CC2)ccc1Nc1ncc(Cl)c(-c2cnc3c(F)cccn23)n1 [Example 177, 1-[4-[4-[[5-chloro-4-(8-fluoroimidazo[1,2-a]pyridin-3-yl)pyrimidin-2-yl]amino]-3-methoxy-phenyl]-1-piperidyl]ethanone]",5 nM
10,"COc1cc(O[C@@H]2CCNC2)ccc1Nc1ncc(Cl)c(-c2cnc3ccccn23)n1 [Example 6.5, 5-chloro-4-imidazo[1,2-a]pyridin-3-yl-N-[2-methoxy-4-[(3R)-pyrrolidin-3-yl]oxy-phenyl]pyrimidin-2-amine]",11 nM
11,"COc1ccc(N2CC[C@H](O)C2)cc1Nc1ncc(Cl)c(-c2cnc3ccccn23)n1 [Example 3.5, (3S)-1-[3-[(5-chloro-4-imidazo[1,2-a]pyridin-3-yl-pyrimidin-2-yl)amino]-4-methoxy-phenyl]pyrrolidin-3-ol]",41 nM
12,"COc1cc(O[C@@H]2CCN(S(C)(=O)=O)C2)ccc1Nc1ncc(Cl)c(-c2cnc3ccccn23)n1 [Example 11, 5-chloro-4-imidazo[1,2-a]pyridin-3-yl-N-[2-methoxy-4-[(3R)-1-methylsulfonylpyrrolidin-3-yl]oxy-phenyl]pyrimidin-2-amine]",18 nM
13,"COc1cc(N2CCN(C(C)=O)C(C)C2)ccc1Nc1ncc(Cl)c(-c2cnc3ccccn23)n1 (centres unmarked) [Example 3.36, 1-[4-[4-[(5-chloro-4-imidazo[1,2-a]pyridin-3-yl-pyrimidin-2-yl)amino]-3-methoxy-phenyl]-2-methyl-piperazin-1-yl]ethanone]",8 nM
14,"COc1cc(N2CCN(C[C@H](C)O)CC2)ccc1Nc1ncc(F)c(-c2cnc3ccccn23)n1 [Example 89, (2S)-1-[4-[4-[(5-fluoro-4-imidazo[1,2-a]pyridin-3-yl-pyrimidin-2-yl)amino]-3-methoxy-phenyl]piperazin-1-yl]propan-2-ol]",34 nM
15,"COc1cc(N2CCN(CCO)CC2)ccc1Nc1ncc(Br)c(-c2cnc3ccccn23)n1 [Example 115, 2-[4-[4-[(5-bromo-4-imidazo[1,2-a]pyridin-3-yl-pyrimidin-2-yl)amino]-3-methoxy-phenyl]piperazin-1-yl]ethanol]",5 nM
16,"COc1cc(OC[C@@H]2CCCN2)ccc1Nc1ncc(Cl)c(-c2cnc3ccccn23)n1 [Example 6.2, 5-chloro-4-imidazo[1,2-a]pyridin-3-yl-N-[2-methoxy-4-[[(2S)-pyrrolidin-2-yl]methoxy]phenyl]pyrimidin-2-amine]",14 nM
